Data reported in ChEMBL document CHEMBL1137967, “Lactams as EP4 prostanoid receptor subtype selective agonists. Part 1: 2-Pyrrolidinones-stereochemical and lower side-chain optimization” (Bioorg Med Chem Lett, 2004).

Key:
[1] = molecular target: Prostaglandin E2 receptor EP2 subtype (Homo sapiens, UniProt P43116); test: Binding affinity was determined against prostanoid EP2 receptor
[2] = molecular target: T1, Prostaglandin E2 receptor EP3 subtype (Homo sapiens, UniProt P43115); test: Binding affinity was determined against prostanoid EP3 receptor
T1 sequence (P43115 whole entry): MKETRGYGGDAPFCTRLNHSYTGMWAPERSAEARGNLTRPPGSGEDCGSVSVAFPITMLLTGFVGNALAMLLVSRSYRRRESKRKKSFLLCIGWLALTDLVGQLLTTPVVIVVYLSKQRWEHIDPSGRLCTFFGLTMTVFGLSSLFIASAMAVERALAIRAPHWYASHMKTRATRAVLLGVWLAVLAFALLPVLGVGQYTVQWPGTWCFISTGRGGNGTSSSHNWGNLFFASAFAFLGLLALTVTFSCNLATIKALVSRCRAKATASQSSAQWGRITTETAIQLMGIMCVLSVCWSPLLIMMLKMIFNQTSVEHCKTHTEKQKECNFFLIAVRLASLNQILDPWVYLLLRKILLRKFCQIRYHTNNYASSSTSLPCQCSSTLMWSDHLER

[3] = molecular target: T2, Prostaglandin E2 receptor EP4 subtype (Homo sapiens, UniProt P35408); test: Agonist activity against recombinant prostanoid EP4 receptor stably transfected in CHO cells; type: functional, cell-based
[4] = molecular target: T3, Prostaglandin E2 receptor EP1 subtype (Homo sapiens, UniProt P34995); test: Binding affinity was determined against prostanoid EP1 receptor
T3 sequence (P34995 whole entry): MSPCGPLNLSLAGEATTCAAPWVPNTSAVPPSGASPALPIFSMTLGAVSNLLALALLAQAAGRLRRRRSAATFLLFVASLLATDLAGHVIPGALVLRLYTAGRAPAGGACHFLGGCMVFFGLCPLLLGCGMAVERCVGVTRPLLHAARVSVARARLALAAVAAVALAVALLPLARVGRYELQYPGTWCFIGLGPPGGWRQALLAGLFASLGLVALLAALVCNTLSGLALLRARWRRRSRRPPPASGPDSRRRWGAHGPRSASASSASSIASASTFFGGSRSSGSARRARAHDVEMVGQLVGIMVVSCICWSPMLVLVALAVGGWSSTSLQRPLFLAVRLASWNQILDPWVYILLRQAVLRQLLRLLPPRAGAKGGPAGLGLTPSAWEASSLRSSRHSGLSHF

[5] = molecular target: T2, Prostaglandin E2 receptor EP4 subtype; test: Binding affinity was determined against prostanoid EP4 receptor

T2 sequence (P35408 whole entry): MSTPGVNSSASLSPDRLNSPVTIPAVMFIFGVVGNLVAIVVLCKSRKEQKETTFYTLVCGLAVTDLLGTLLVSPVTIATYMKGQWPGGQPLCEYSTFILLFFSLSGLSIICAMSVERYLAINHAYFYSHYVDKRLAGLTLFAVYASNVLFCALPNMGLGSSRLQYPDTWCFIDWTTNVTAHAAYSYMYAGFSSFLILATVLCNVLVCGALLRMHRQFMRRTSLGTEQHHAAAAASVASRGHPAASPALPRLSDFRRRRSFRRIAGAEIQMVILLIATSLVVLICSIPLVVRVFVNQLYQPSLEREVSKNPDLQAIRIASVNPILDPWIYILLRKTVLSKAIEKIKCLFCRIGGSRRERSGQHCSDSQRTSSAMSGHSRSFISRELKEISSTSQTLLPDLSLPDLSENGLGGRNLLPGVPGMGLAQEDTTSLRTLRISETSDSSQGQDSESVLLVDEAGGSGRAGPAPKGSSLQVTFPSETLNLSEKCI
Chain of Prostaglandin E2 receptor EP2 subtype (P43116 whole entry): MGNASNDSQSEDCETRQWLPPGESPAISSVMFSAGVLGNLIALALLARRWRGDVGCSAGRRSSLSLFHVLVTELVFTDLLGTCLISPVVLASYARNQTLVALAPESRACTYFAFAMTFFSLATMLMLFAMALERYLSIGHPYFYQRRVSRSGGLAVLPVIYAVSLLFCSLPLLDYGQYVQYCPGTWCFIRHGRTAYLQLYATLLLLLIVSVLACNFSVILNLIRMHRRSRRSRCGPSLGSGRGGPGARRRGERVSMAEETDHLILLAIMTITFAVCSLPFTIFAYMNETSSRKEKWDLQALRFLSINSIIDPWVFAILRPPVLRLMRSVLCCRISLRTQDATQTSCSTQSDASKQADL

Row | Compound | Ki [1] [µM] | Ki [2] [µM] | EC50 [3] [µM] | Ki [4] [µM] | Ki [5] [µM]
1 | CCCCC[C@H](O)/C=C/[C@@H]1CCC(=O)N1CCCCCCC(=O)O |  |  | > 100 |  | 
2 | O=C(O)CCCCCCN1C(=O)CC[C@@H]1/C=C/C(O)c1cccc(-c2ccccc2Cl)c1 (some centres not stated) | 42 | > 100 | 0.04 |  | 0.0062
3 | Cc1cc(Cl)ccc1-c1cccc(C(O)/C=C/[C@H]2CCC(=O)N2CCCCCCC(=O)O)c1 (some centres not stated) | > 100 | 38 | 0.0008 |  | 0.0031
4 | O=C(O)CCCCCCN1C(=O)CC[C@@H]1/C=C/C(O)c1ccccc1-c1ccccc1 (some centres not stated) |  |  | 42 |  | 
5 | O=C(O)CCCCCCN1C(=O)CC[C@@H]1/C=C/[C@@H](O)CC1CCCCC1 | 71 | 16 | 0.12 |  | 0.0075
6 | CCCCC[C@@H](O)/C=C/[C@H]1CCC(=O)N1CCCCCCC(=O)O |  |  | 6.1 |  | 
7 | O=C(O)CCCCCCN1C(=O)CC[C@@H]1/C=C/C(O)Cc1cccc(C(F)(F)F)c1 (some centres not stated) |  | 12 | 0.017 | > 100 | 
8 | O=C(O)CCCCCCN1C(=O)CC[C@@H]1/C=C/[C@@H](O)Cc1cccc(C(F)(F)F)c1 | 29 | 13 | 0.012 | > 100 | 0.0016
9 | CCCCC[C@@H](O)/C=C/[C@@H]1CCC(=O)N1CCCCCCC(=O)O |  |  | 200 |  | 
10 | O=C(O)CCCCCCN1C(=O)CC[C@@H]1/C=C/C(O)c1ccc(C(F)(F)F)o1 (some centres not stated) | 58 | 4.9 | 0.04 |  | 0.01
11 | O=C(O)CCCCCCN1C(=O)CC[C@@H]1/C=C/C(O)c1cccc(-c2ccc(Cl)cc2)c1 (some centres not stated) | 4.2 | > 100 | 0.05 |  | 0.39
12 | O=C(O)CCCCCCN1C(=O)CC[C@@H]1CCC(=O)c1cccc(C(F)(F)F)c1 |  |  | > 10 |  | 
13 | O=C(O)CCCCCCN1C(=O)CC[C@@H]1/C=C/C(O)c1cccc(-c2cccc(Cl)c2)c1 (some centres not stated) | 85 | > 100 | 0.17 |  | 0.42

The remaining lines, values ahead:

Row | Ki [1] [µM] | Ki [2] [µM] | EC50 [3] [µM] | Ki [4] [µM] | Ki [5] [µM] | Compound
14 | 31 | 100 |  |  |  | O=C(O)CCCCCCN1C(=O)CC[C@@H]1/C=C/C(O)Cc1ccccc1 (some centres not stated)
15 | 164 | 20 | 0.18 | 28 |  | O=C(O)CCCCCCN1C(=O)CC[C@@H]1/C=C/C(O)C1(c2ccccc2)CC1 (some centres not stated)
16 |  | > 100 | 0.085 | 50 | 0.032 | O=C(O)CCCCCCN1C(=O)CC[C@@H]1/C=C/C(O)c1cccc(Oc2ccccc2)c1 (some centres not stated)
17 |  | 12 | 0.13 |  | 0.0074 | O=C(O)CCCCCCN1C(=O)CC[C@@H]1CC[C@@H](O)c1cccc(C(F)(F)F)c1
18 | 26 | > 100 | 0.015 |  | 0.0082 | Cc1cc(O)ccc1-c1cccc([C@H](O)CC[C@H]2CCC(=O)N2CCCCCCC(=O)O)c1
19 | 41 |  | > 10 |  | 2.3 | O=C(O)CCCCCCN1C(=O)CC[C@@H]1/C=C/C(O)c1ccccc1 (some centres not stated)
20 | > 100 | 56 | 0.2 |  | 0.0042 | O=C(O)CCCCCCN1C(=O)CC[C@@H]1/C=C/[C@@H](O)CC1CCC1
21 | 68 | 131 | 0.5 |  | 0.14 | O=C(O)CCCCCCN1C(=O)CC[C@@H]1/C=C/C(O)c1cccc(C(F)(F)F)c1 (some centres not stated)
22 | 4.5 | 3 | 0.056 | > 100 | 0.0045 | CCCCC[C@H](O)/C=C/[C@H]1CCC(=O)N1CCCCCCC(=O)O
23 | > 100 | > 100 | 0.013 |  | 0.0049 | Cc1cc(O)ccc1-c1cccc(C(O)/C=C/[C@H]2CCC(=O)N2CCCCCCC(=O)O)c1 (some centres not stated)
24 | 22 | 38 | 0.46 |  | 0.016 | O=C(O)CCCCCCN1C(=O)CC[C@@H]1CC[C@@H](O)Cc1cccc(C(F)(F)F)c1
25 | 32 | > 100 | 0.36 |  | 0.36 | O=C(O)CCCCCCN1C(=O)CC[C@@H]1/C=C/C(O)c1cccc(-c2ccccc2)c1 (some centres not stated)
